Experimental data as given in patent US20100075960A1 (priority 2006, published 2010).

Key:
Type in all cases: cell-based
[1] = tested on: A 704; assay: Inhibition of cell proliferation, A 704; details: Homo sapiens, A704; kidney; 72 h; methylene blue or CellTiter-Glo
Protocol: (§1) II. Inhibition of Cell Proliferation by PLK1 Inhibitors.
(§2) Exponentially growing cell lines of different tumor origins, cultured in appropriate media containing 10% fetal bovine serum at 37° C. in a 5% CO2 incubator were plated in 96 or 384-well plates. Twenty four hours post-plating, cells were treated with different concentrations of test compounds ranging from 20 μM to 0.04 nM. Several wells were left untreated as a control. Seventy two hours post-treatment, cell numbers were determined using different techniques; 100 μl per well of methylene blue (Sigma M9140) (0.5% in 50:50 Ethanol:water), or 10-100 μl per well of CellTiter-Glo (Promega #G7573), depending on well size. For methylene blue staining, stain was incubated at room temperature for 30 minutes before plates were rinsed and dye solubilized in 1% N-lauroyl sarcosine, sodium salt, (Sigma L5125, in PBS). Plates were read on a microplate reader, measuring the OD at 620 nm. For CellTiter-Glo, plates were incubated at room temperature for 15 minutes and the chemiluminescent signal was read on the Victor V or Envison 2100 reader.
(§3) Percent inhibition of cell growth was expressed as percent proliferation relative to 100% proliferation (control). […]

[2] = tested on: T-47D; assay: Inhibition of cell proliferation, T-47D; details: Homo sapiens, T47D; breast; 72 h; methylene blue or CellTiter-Glo
Protocol: as §1, §2, §3

[3] = tested on: Hep3B; assay: Inhibition of cell proliferation, Hep3B; details: Homo sapiens, liver, 72 h, methylene blue or CellTiter-Glo
Protocol: as §1, §2, §3

[4] = tested on: COLO205; assay: Inhibition of cell proliferation, COLO205; details: Homo sapiens, COLO 205; Colon; 72 h; methylene blue or CellTiter-Glo
Protocol: as §1, §2
(§4) Percent inhibition of cell growth was expressed as percent proliferation relative to 100% proliferation (control). Concentration of test compound that inhibited 50% of cell growth (IC50) was determined by 4 parameter fit of data using XLfit, (value of no cell control was substracted from all samples for background). The data are shown in Table 1 and Table 2 below and represent a compilation of several different experiments each performed using the general parameters outlined above, although minor variations may have been employed in some instances, in Table 1 and Table 2, +=IC50>1 μM; ++=IC50 0.5-1 μM: +++=IC50<0.5 μM.

[5] = tested on: LoVo; assay: Inhibition of cell proliferation, LoVo; details: Homo sapiens, colon, 72 h, methylene blue or CellTiter-Glo
Protocol: as §1, §2, §3

[6] = tested on: EB-3; assay: Inhibition of cell proliferation, EB-3; details: Homo sapiens, peripheral blood, 72 h, methylene blue or CellTiter-Glo
Protocol: as §1, §2, §3

[7] = tested on: NCI-N87; assay: Inhibition of cell proliferation, NCI-N87; details: Homo sapiens, stomach, 72 h, methylene blue or CellTiter-Glo
Protocol: as §1, §2, §3

[8] = tested on: CRO-AP2; assay: Inhibition of cell proliferation, CRO-AP2; details: Homo sapiens, peripheral blood, 72 h, methylene blue or CellTiter-Glo
Protocol: as §1, §2, §3

[9] = tested on: BT474; assay: Inhibition of cell proliferation, BT474; details: Homo sapiens, BT-474; breast; 72 h; methylene blue or CellTiter-Glo
Protocol: as §1, §2, §3

[10] = tested on: CEM/C1; assay: Inhibition of cell proliferation, CEM/C1; details: peripheral blood, 72 h, methylene blue or CellTiter-Glo
Protocol: as §1, §2, §3

[11] = tested on: RPMI 8226; assay: Inhibition of cell proliferation, RPMI 8226; details: Homo sapiens, leukemia, 72 h, methylene blue or CellTiter-Glo
Protocol: as §1, §2, §3

[12] = tested on: BT549; assay: Inhibition of cell proliferation, BT549; details: Homo sapiens, BT-549; breast; 72 h; methylene blue or CellTiter-Glo
Protocol: as §1, §2, §3

[13] = tested on: MiaPaca; assay: Inhibition of cell proliferation, MiaPaca; details: Homo sapiens, MIA PaCa-2; Pancreatic; 72 h; methylene blue or CellTiter-Glo
Protocol: as §1, §2, §3

[14] = tested on: A549-L; assay: Inhibition of cell proliferation, A549-L; details: lung; 72 h; methylene blue or CellTiter-Glo
Protocol: as §1, §2, §4

[15] = tested on: BC-2; assay: Inhibition of cell proliferation, BC-2; details: peripheral blood, 72 h, methylene blue or CellTiter-Glo
Protocol: as §1, §2, §3

[16] = tested on: Panc 02.03; assay: Inhibition of cell proliferation, Panc 02.03; details: Homo sapiens, pancreas, 72 h, methylene blue or CellTiter-Glo
Protocol: as §1, §2, §3

[17] = tested on: SKMEL5; assay: Inhibition of cell proliferation, SKMEL5; details: Homo sapiens, SK-MEL-5; skin; 72 h; methylene blue or CellTiter-Glo
Protocol: as §1, §2, §3

[18] = tested on: NCI-H358; assay: Inhibition of cell proliferation, NCI-H358; details: Homo sapiens, lung, 72 h, methylene blue or CellTiter-Glo
Protocol: as §1, §2, §3

[19] = tested on: T24; assay: Inhibition of cell proliferation, T24; details: Homo sapiens, T-24; urinary bladder; 72 h; methylene blue or CellTiter-Glo
Protocol: as §1, §2, §3

[20] = tested on: BXPC3; assay: Inhibition of cell proliferation, BXPC3; details: Homo sapiens, BXPC-3; Pancreatic; 72 h; methylene blue or CellTiter-Glo
Protocol: as §1, §2, §3

[21] = tested on: NCI-H727; assay: Inhibition of cell proliferation, NCI-H727; details: Homo sapiens, lung, 72 h, methylene blue or CellTiter-Glo
Protocol: as §1, §2, §3

[22] = tested on: HCC1937; assay: Inhibition of cell proliferation, HCC1937; details: Homo sapiens, breast, 72 h, methylene blue or CellTiter-Glo
Protocol: as §1, §2, §3

[23] = tested on: SKMEL3; assay: Inhibition of cell proliferation, SKMEL3; details: Homo sapiens, SK-MEL3; skin; 72 h; methylene blue or CellTiter-Glo
Protocol: as §1, §2, §3

[24] = tested on: A2780; assay: Inhibition of cell proliferation, A2780; details: Homo sapiens, ovary, 72 h, methylene blue or CellTiter-Glo
Protocol: as §1, §2, §3

[25] = tested on: SK-BR-3; assay: Inhibition of cell proliferation, SK-BR-3; details: Homo sapiens, breast, 72 h, methylene blue or CellTiter-Glo
Protocol: as §1, §2, §3

[26] = tested on: CA46; assay: Inhibition of cell proliferation, CA46; details: Homo sapiens, peripheral blood, 72 h, methylene blue or CellTiter-Glo
Protocol: as §1, §2, §3

[27] = tested on: Hela; assay: Inhibition of cell proliferation, Hela; details: Homo sapiens, Cervical, 72 h, methylene blue or CellTiter-Glo
Protocol: as §1, §2, §3

[28] = tested on: ASPC3; assay: Inhibition of cell proliferation, ASPC3; details: Pancreatic; 72 h; methylene blue or CellTiter-Glo
Protocol: as §1, §2, §3

[29] = tested on: SKMEL28; assay: Inhibition of cell proliferation, SKMEL28; details: Homo sapiens, SK-MEL-28; skin; 72 h; methylene blue or CellTiter-Glo
Protocol: as §1, §2, §3

IC50 [2]: > 1000 nM
IC50 [3]: < 500 nM
IC50 [4]: < 500 nM
IC50 [5]: < 500 nM
IC50 [9]: > 1000 nM
IC50 [12]: < 500 nM
IC50 [13]: < 500 nM
IC50 [14]: < 500 nM
IC50 [16]: < 500 nM
IC50 [17]: < 500 nM
IC50 [18]: < 500 nM
IC50 [19]: < 500 nM
IC50 [20]: < 500 nM
IC50 [21]: > 1000 nM
IC50 [22]: > 1000 nM
IC50 [23]: < 500 nM
IC50 [24]: < 500 nM
IC50 [25]: < 500 nM
IC50 [27]: < 500 nM
IC50 [28]: < 500 nM
IC50 [29]: > 1000 nM
Structure (SMILES): C[C@@H](Oc1cc(-n2cnc3cc(-c4cnn(C)c4)ccc32)sc1C(N)=O)c1cccc(OC2CCN(C)CC2)c1Cl [Example 48]
IC50 [1]: < 500 nM
IC50 [6]: < 500 nM
IC50 [7]: < 500 nM
IC50 [8]: < 500 nM
IC50 [10]: < 500 nM
IC50 [11]: < 500 nM
IC50 [15]: > 1000 nM
IC50 [26]: < 500 nM
